# Experiment: recombinant UMI read abundance after kanamycin selection (control-corrected) (log10(CPM+1)); higher = more efficient recombination; extreme values may be limits of the assay; sequences stand for … in AGTGCAGAGAAAATCGGCCAGTTTTCTCTGCCTGCAGTCCGCATGCCGTGGGACCCCTTGGGTTCTAACCTGTTGCCTAGATTTATGCAGCGGACTGCCTTTCTCCCAAAGTGATAAACCGG…AGGTTGGTTTCACT; site = the 11-nt donor
# Summary of the method: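 Sequenced counts of recombinant UMIs were turned into CPM, averaged across replicates and scaled with control-derived factors. The reported figure is log10(CPM+1). Those UMIs, each 12 nt long, tagged donor and donor-binding-loop pairs on a plasmid with a promoterless kanamycin gene, screened as a pool in Escherichia coli with IPTG (0.07 mM) plus kanamycin or without selection.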
# 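Further: IS621 bridge recombinase in Escherichia coli cells against a fixed T5 target plasmid.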
row,Sequence,recombinant UMI read abundance (log10)
1,CGGGTGTCATGGACCGGTTTTCCCGGTAATCCGTATTTGCC (site CGGGCGTCTGG),1.74
2,CGGGTGTCATGGACCGGTTTTCCCGGTAATCCGTATTTGCC (site CGGGGGTCTGG),0
3,CGGGTGTCATGGACCGGTTTTCCCGGTAATCCGTATTTGCC (site CGGGTGTCTGG),2.69
4,CGGGTTCCATGGACCGGTTTTCCCGGTAATCCGTATTTGTT (site CGGAATCCTAA),0.00595
5,CGGGTTCCATGGACCGGTTTTCCCGGTAATCCGTATTTGTT (site CGGGTTCCTAA),0.776
6,CGGTAACCATGGACCGGTTTTCCCGGTAATCCGTATTTGAT (site CGGAAACCTAT),0
7,CGGTAACCATGGACCGGTTTTCCCGGTAATCCGTATTTGAT (site CGGCAACCTAT),0.00415
8,CGGTAACCATGGACCGGTTTTCCCGGTAATCCGTATTTGAT (site CGGGAACCTAT),0
9,CGGTAACCATGGACCGGTTTTCCCGGTAATCCGTATTTGAT (site CGGTAACCTAT),0
10,CGGTAGACATGGACCGGTTTTCCCGGTAATCCGTATTTGCA (site AGGAAGACTTG),0
11,CGGTAGACATGGACCGGTTTTCCCGGTAATCCGTATTTGCA (site CGGTAGACTTG),2.84
12,CGGTAGCCATGGACCGGTTTTCCCGGTAATCCGTATTTGCT (site CGGTAGCCTAG),0.793
13,CGGTATCCATGGACCGGTTTTCCCGGTAATCCGTATTTGTT (site CGGAATCCTAA),0
14,CGGTATCCATGGACCGGTTTTCCCGGTAATCCGTATTTGTT (site CGGCATCCTAA),0.493
15,CGGTATCCATGGACCGGTTTTCCCGGTAATCCGTATTTGTT (site CGGGATCCTAA),0.0113
16,CGGTATCCATGGACCGGTTTTCCCGGTAATCCGTATTTGTT (site CGGTATCCTAA),0.562
17,CGGTCGTCATGGACCGGTTTTCCCGGTAATCCGTATTTGCA (site CGGTCGTCTTG),1.71
18,CGGTGGCCATGGACCGGTTTTCCCGGTAATCCGTATTTGGG (site CGGTGGCCTCC),0.0062
19,CGGTTATCATGGACCGGTTTTCCCGGTAATCCGTATTTGCT (site CGATCATCTAG),0

row,Sequence,recombinant UMI read abundance (log10)
1,CGGTTATCATGGACCGGTTTTCCCGGTAATCCGTATTTGCT (site CGGTTATCTAG),2.65
2,CGGTTTACATGGACCGGTTTTCCCGGTAATCCGTATTTGCT (site CAGTTTACTAG),0
3,CGGTTTACATGGACCGGTTTTCCCGGTAATCCGTATTTGCT (site CCGTTTACTAG),0.391
4,CGGTTTACATGGACCGGTTTTCCCGGTAATCCGTATTTGCT (site CGGTTTACTAG),1.33
5,CGGTTTACATGGACCGGTTTTCCCGGTAATCCGTATTTGCT (site CTGTTTACTAG),1.21
6,CGTAAAGCATGGACCGGTTTTCCCGGTAATCCGTATTTGAT (site CATAAAGCTAT),0.355
7,CGTAAAGCATGGACCGGTTTTCCCGGTAATCCGTATTTGAT (site CCTAAAGCTAT),0
8,CGTAAAGCATGGACCGGTTTTCCCGGTAATCCGTATTTGAT (site CGTAAAGCTAT),2.44
9,CGTAAAGCATGGACCGGTTTTCCCGGTAATCCGTATTTGAT (site CTTAAAGCTAT),0
10,CGTAACACATGGACCGGTTTTCCCGGTAATCCGTATTTGCC (site CGTAACACTGG),2.01
11,CGTAAGACATGGACCGGTTTTCCCGGTAATCCGTATTTGAG (site CGTAAGACTCT),1.73
12,CGTAAGACATGGACCGGTTTTCCCGGTAATCCGTATTTGAG (site CGTCAGACTCT),0.0684
13,CGTAAGACATGGACCGGTTTTCCCGGTAATCCGTATTTGAG (site CGTGAGACTCT),0.0574
14,CGTAAGACATGGACCGGTTTTCCCGGTAATCCGTATTTGAG (site CGTTAGACTCT),0.396
15,CGTACATCATGGACCGGTTTTCCCGGTAATCCGTATTTGCG (site CGTACATCTCG),1.29
16,CGTACGTCATGGACCGGTTTTCCCGGTAATCCGTATTTGTT (site AGTACGTCTAA),0.0741
17,CGTACGTCATGGACCGGTTTTCCCGGTAATCCGTATTTGTT (site CGTACGTCTAA),0.728
18,CGTACGTCATGGACCGGTTTTCCCGGTAATCCGTATTTGTT (site GGTACGTCTAA),0.0115
19,CGTACGTCATGGACCGGTTTTCCCGGTAATCCGTATTTGTT (site TGTACGTCTAA),0.00974

row,Sequence,recombinant UMI read abundance (log10)
1,CGTACTCCATGGACCGGTTTTCCCGGTAATCCGTATTTGCA (site CGTACTCCTTG),0.892
2,CGTAGAACATGGACCGGTTTTCCCGGTAATCCGTATTTGTT (site CGTAGAACTAA),0.685
3,CGTAGAACATGGACCGGTTTTCCCGGTAATCCGTATTTGTT (site CGTCGAACTAA),0.018
4,CGTAGAACATGGACCGGTTTTCCCGGTAATCCGTATTTGTT (site CGTGGAACTAA),0.00623
5,CGTAGAACATGGACCGGTTTTCCCGGTAATCCGTATTTGTT (site CGTTGAACTAA),0.0104
6,CGTAGTGCATGGACCGGTTTTCCCGGTAATCCGTATTTGTT (site CGTAGTGCTAA),0.84
7,CGTCCAGCATGGACCGGTTTTCCCGGTAATCCGTATTTGCT (site CGTCCAGCTAG),0.438
8,CGTCGAACATGGACCGGTTTTCCCGGTAATCCGTATTTGAA (site CGTCGAACTTT),0.822
9,CGTCGAACATGGACCGGTTTTCCCGGTAATCCGTATTTGTT (site CGTAGAACTAA),0
10,CGTCGAACATGGACCGGTTTTCCCGGTAATCCGTATTTGTT (site CGTCGAACTAA),0
11,CGTCGAACATGGACCGGTTTTCCCGGTAATCCGTATTTGTT (site CGTGGAACTAA),0
12,CGTCGAACATGGACCGGTTTTCCCGGTAATCCGTATTTGTT (site CGTTGAACTAA),0.00437
13,CGTCTATCATGGACCGGTTTTCCCGGTAATCCGTATTTGAT (site CGTCTATCTAT),0
14,CGTCTCTCATGGACCGGTTTTCCCGGTAATCCGTATTTGGG (site CGTCTCTCTCC),0.0222
15,CGTCTCTCATGGACCGGTTTTCCCGGTAATCCGTATTTGTA (site CATCTCTCTTA),1.13
16,CGTCTCTCATGGACCGGTTTTCCCGGTAATCCGTATTTGTA (site CCTCTCTCTTA),1.04
17,CGTCTCTCATGGACCGGTTTTCCCGGTAATCCGTATTTGTA (site CGTCTCTCTTA),2.64
18,CGTCTCTCATGGACCGGTTTTCCCGGTAATCCGTATTTGTA (site CTTCTCTCTTA),1.33
19,CGTCTGTCATGGACCGGTTTTCCCGGTAATCCGTATTTGAC (site CGTCTGTCTGT),0

# — the supplement of paper PMC11208160
